The results in this text go back to patent publication US4528397A, “Aminocarboxylic acid derivatives” (Sanraku-Ocean Co., Ltd., priority 1982, dated 1985).

Series [1] has as its target T1, dipeptidase (Rattus norvegicus, UniProt P31430).
T1 construct: from tissue; host or cells: rat kidney, microsome fraction
The series is described as follows: In vitro inhibition of partially purified rat kidney dipeptidase (spectrophotometric). It is filed as biochemical. The settings on record: pH 8.0, 37° C., substrate of Table 1 (glycyldehydrophenylalanine or PS-5) not stated; for inhibition at 100 µM: inhibitor 10^-4 M. The procedure: (1) Purification of dipeptidase
Rats were sacrificed by decapitation, and about 12 g of fresh kidneys were collected. A microsome fraction was obtained by the Hogboom's subcellular fractionating method used on differential centrifugation (Methods in Enzymology, Vol. 1, pages 16-19, Academic Press, New York, 1955). The microsome fraction was treated with 400 μg/ml of trypsin at 0° C. for 16 hours, and then supercentrifugally fractionated at 10^5 G for 60 minutes at 0° C.
The resulting precipitate was suspended in 20 ml of tris-HCl buffer (20 mM, pH 7.6) containing a detergent (0.4% Triton X-100), and then supercentrifugally fractionated at 10^5 G for 60 minutes at 0° C. The supernatant liquid was charged onto a column (15×100 mm) of Sephadex A-50 (Cl-form), and the column was eluted with tris-HCl buffer (20 mM, pH 7.0) containing a detergent (0.4% Triton X-100) with a sodium chloride concentration linear gradient from 0 to 0.5M.
The active fractions were concentrated with polyethylene glycol 4000, and then successively purified by a Sephadex G-150 (25×900 mm) column and a Sephadex G-200 (25×900 mm) column using the same tris-HCl buffer as above to obtain a partially purified sample of the dipeptidase.
(2) Measurement of inhibitory activity
Fifty microliters of the enzyme obtained as above was preincubated together with 30 μl of an inhibitor solution in a cuvette at 37° C. for 5 minutes. Then, 2.82 ml of a solution of glycyldehydrophenylalanine (5.3×10^-5 M) preincubated to 37° C. as a substrate in tris-HCl (0.1M, pH 8.0) was added, and the reaction was started. The reaction was carried out in a cuvette of a Hitachi spectrophotometer equipped with a constant temperature (37° C.) device, and by a recorder, a decrease in the absorbance of the reaction mixture at a wavelength of 275 nm during 5 minutes was measured.
The same experiment as above was carried out using a tris-HCl (pH 8.0) solution of antibiotic PS-5 (1.03 mM) as a substrate, and a decrease in the absorbance of the reaction mixture at a wavelength of 300 nm during 5 minutes was measured.
The percent inhibition and ID50 at a predetermined inhibitor concentration were determined from the measured values obtained as above and that obtained in a control in which no inhibitor was used.

A short description of series [2]: Coadministration of AEG and antibiotic PS-5: plasma concentration of antibiotic PS-5. It is filed as in vivo, mice (male, ddY). The settings on record: for concentration at 5 min / concentration at 0.25 h / concentration at 0.5 h: mouse, plasma, sc, 2 mg. Here is the method: (§1) Coadministration of N-(2-aminoethyl)glycine and antibiiotic PS-5
(§2) To groups of 5 mice each (male, ddY, aged 5 weeks) was orally administered 0.25 ml (20 mg/mouse) of an aqueous solution of N-(2-aminoethyl)glycine (AEG) in a concentration of 80 mg/ml (the solutions had been adjusted to pH 7.5 with 1N HCl). The same volume of pure water was administered to a control group. Thirty minutes later, 0.25 ml of a solution of antibiotic PS-5 Na salt (8 mg/ml) in M/100 PBS (pH 7.0) was subcutaneously administered. Blood was taken from the retroorbital sinus at various time intervals using a heparinized capillary (a thermohematocrit capiratry tube, total length 75 mm, outside diameter 1.45-1.65 mm). One end of the tube was sealed with IATROSEAL® (Iatron Laboratries) and the plasma was separated by centrifugal separation (3000 rpm, 10 minutes). Blood sampling was carried out a total of six times at 0 time (immediately before administration of the antibiotic PS-5) and 5 minutes, 15 minutes, 30 minutes, 60 minutes and 90 minutes after the administration of the antibiotic PS-5. The concentration of the antibiotic PS-5 in the plasma was disc-assayed against Comamonas terrigena B-996.

Series [3] can be described thus: Coadministration of AEG and antibiotic PS-5: urinary recovery of antibiotic PS-5. It is filed as in vivo, mice (male, ddY). The following applies: mouse, urine, sc, 2 mg, 0-3 hrs. Here is the method: as §1
as §2, with “The concentration of the antibiotic PS-5 in the plasma was disc-assayed against Comamonas terrigena B-996.” left out
On the other hand, the whole urine of the mice was taken 3 hours after the administration of the antibiotic PS-5, and the concentration of the antibiotic PS-5 in the collected whole urine was assayed by the same method as above. The mean concentrations for five mice was calculated.

T1 sequence (P31430 17-410): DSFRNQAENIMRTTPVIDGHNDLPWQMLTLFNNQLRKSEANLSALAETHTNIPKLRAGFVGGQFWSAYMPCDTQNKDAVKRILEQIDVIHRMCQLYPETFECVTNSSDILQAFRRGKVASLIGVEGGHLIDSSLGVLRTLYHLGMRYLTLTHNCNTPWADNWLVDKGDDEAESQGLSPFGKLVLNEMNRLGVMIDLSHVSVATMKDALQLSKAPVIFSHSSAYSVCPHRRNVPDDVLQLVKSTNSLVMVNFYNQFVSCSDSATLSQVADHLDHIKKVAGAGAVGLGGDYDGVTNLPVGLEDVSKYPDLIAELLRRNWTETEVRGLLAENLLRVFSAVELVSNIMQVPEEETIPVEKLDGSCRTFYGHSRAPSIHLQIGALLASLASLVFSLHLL

By inhibition is commonly meant the change of the read-out against control, counted positive when it falls. For `NCCNCC(=O)O` [Compound 1, N-(2-aminoethyl)glycine], in series [1], the inhibition at 100 µM is 86%.

As for `CC[C@H]1C(=O)N2C(C(=O)O)=C(SCCNC(C)=O)C[C@H]12` [antibiotic PS-5], the “Concentration of antibiotic PS-5 in the plasma” value in series [2] (AEG administered group (AEG 20 mg/mouse oral, 30 min before PS-5 s.c.), 0 min (immediately before PS-5)) turned out to be 0 ng/mL; in series [2] (AEG administered group, 60 min after PS-5 s.c.), 0 ng/mL; in series [2] (AEG administered group, 90 min after PS-5 s.c.) it was 0 ng/mL; in series [2] (Control group (water instead of AEG, then PS-5 s.c.), 0 min (immediately before PS-5)) it was 0 ng/mL; in series [2] (Control group (water, PS-5 s.c.), 60 min) it was 0 ng/mL; in series [2] (Control group (water, PS-5 s.c.), 90 min), 0 ng/mL. The concentration at 5 min was determined as 49600 ± 3700 ng/mL in series [2] (AEG administered group, 5 min after PS-5 s.c.) and 52000 ± 4600 ng/mL in series [2] (Control group (water, PS-5 s.c.), 5 min). In addition, the concentration at 0.25 h in series [2] (AEG administered group, 15 min after PS-5 s.c.) worked out at 21700 ± 2600 ng/mL; in series [2] (Control group (water, PS-5 s.c.), 15 min) it was 15200 ± 1900 ng/mL. In addition, the concentration at 0.5 h turned out to be 2300 ± 500 ng/mL in series [2] (AEG administered group, 30 min after PS-5 s.c.) and 1000 ± 100 ng/mL in series [2] (Control group (water, PS-5 s.c.), 30 min). The dose excreted at 3 h in series [3] (AEG administered group (AEG 20 mg/mouse oral, PS-5 s.c.)) worked out at 13.2%; in series [3] (Control group (water, PS-5 s.c.)) it was 0%.

In series [1], `C[C@H](NCCN)C(=O)O` [Compound 3, N-(2-aminoethyl)-L-alanine] yielded an inhibition at 100 µM of 15.6%.

On to `NCCN[C@@H](Cc1ccccc1)C(=O)O` [Compound 4, N-(2-aminoethyl)-L-phenylalanine], for which, in series [1], testing at 100 µM gave an inhibition of 38%.

On to `C[C@H](N)CNCC(=O)O` [Compound 6, (S)-N-(2-aminopropyl)glycine], for which, in series [1], the inhibition at 100 µM amounted to 42.4%.

In series [1], `N[C@H](CNCC(=O)O)Cc1ccccc1` [Compound 5, (S)-[N-(2-amino-2-benzyl)ethyl]glycine] showed an inhibition at 100 µM of 85%. Besides, the IC50 in series [1] (read-out: ID50 (the source's name)) came out at 22 µM.

`NCCSCC(=O)O` [Compound 2, (2-aminoethyl)thioacetic acid] showed an inhibition at 100 µM in series [1] of 2%.
